From US10189840B2, “Substituted tricyclic heterocyclic compounds” (BRISTOL-MYERS SQUIBB COMPANY, priority 2015, dated 2019) come the findings set out here.

Sequence of TNFα (P01375 77-233): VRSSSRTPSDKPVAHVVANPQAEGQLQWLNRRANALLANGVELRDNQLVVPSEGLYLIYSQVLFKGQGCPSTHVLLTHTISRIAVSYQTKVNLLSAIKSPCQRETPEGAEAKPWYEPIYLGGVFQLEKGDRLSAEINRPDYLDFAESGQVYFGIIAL

In this experiment the target is TNFα (Homo sapiens (Human), UniProt P01375). Description: TNF induced HEK-Blue assay. The class given is cell-based. To be noted: TNFα 0.5 ng/ml; HEK-Blue-CD40L cells, NF-κB-driven secreted alkaline phosphatase reporter; 18 h. The essentials:
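Compounds at 0.004–25 μM final were preincubated 30 min with TNFα (0.5 ng/ml final) in DMEM/10% FBS. HEK-Blue-CD40L cells carrying an NF-κB-driven SEAP reporter (20,000/well) were then added for 18 h at 37 °C, 5% CO2, and SEAP was read by QUANTI-Blue at 620 nm. IC50 came from a 4-parameter logistic fit, normalized to unstimulated and stimulated DMSO controls.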
For orientation: IC50 means the concentration at which inhibition is half-maximal. A high value points to lower potency. For the molecule `CC(C)(O)c1ncc(-c2ccc3nc4n(c3n2)C(c2ccccc2OC(F)F)CC4O)cn1` (stereo not shown) [Example 11 (e1), 8-(2-(difluoromethoxy)phenyl)-2-(2-(2-hydroxypropan-2-yl)pyrimidin-5-yl)-7,8-dihydro-6H-pyrrolo[2′,1′:2,3]imidazo[4,5-b]pyridin-6-ol], the IC50 is less than 1000 nM.

Take `CC(C)(O)c1ncc(-c2ccc3nc4n(c3n2)C(c2ccccc2OC(F)F)CC4O)cn1` (stereo not shown) [Example 11 (e4), 8-(2-(difluoromethoxy)phenyl)-2-(2-(2-hydroxypropan-2-yl)pyrimidin-5-yl)-7,8-dihydro-6H-pyrrolo[2′,1′:2,3]imidazo[4,5-b]pyridin-6-ol]: the IC50 was 1000 to 10000 nM.

Molecule `CC(C)(O)c1ccc(-c2ccc3nc4n(c3n2)C(c2ccccc2OC(F)F)CC4F)cc1` (stereo not shown) [Example 15 (DM), 2-(4-(8-(2-(difluoromethoxy)phenyl)-6-fluoro-7,8-dihydro-6H-pyrrolo[2′,1′:2,3]imidazo[4,5-b]pyridin-2-yl)phenyl)propan-2-ol] had an IC50 of less than 1000 nM. As to `CC(C)(O)c1ccc(-c2ccc3nc4n(c3n2)C(c2ccccc2OC(F)F)CC4F)cc1` (stereo not shown) [Example 15 (e1), 2-(4-(8-(2-(difluoromethoxy)phenyl)-6-fluoro-7,8-dihydro-6H-pyrrolo[2′,1′:2,3]imidazo[4,5-b]pyridin-2-yl)phenyl)propan-2-ol], the IC50 was less than 1000 nM.

As to `CC(C)(O)c1ccc(-c2ccc3nc4n(c3n2)C(c2ccccc2OC(F)F)CC4F)cc1` (stereo not shown) [Example 15 (e4), 2-(4-(8-(2-(difluoromethoxy)phenyl)-6-fluoro-7,8-dihydro-6H-pyrrolo[2′,1′:2,3]imidazo[4,5-b]pyridin-2-yl)phenyl)propan-2-ol], the IC50 lay in the range of 10000 to 25000 nM. Take `CC(C)(O)c1ncc(-c2ccc3nc4n(c3n2)C(c2ccccc2OC(F)F)CC4F)cn1` (stereo not shown) [Example 16 (DM), 2-(5-(8-(2-(difluoromethoxy)phenyl)-6-fluoro-7,8-dihydro-6H-pyrrolo[2′,1′:2,3]imidazo[4,5-b]pyridin-2-yl)pyrimidin-2-yl)propan-2-ol]: the IC50 was less than 1000 nM.

Consider `CC(C)(O)c1ncc(-c2ccc3nc4n(c3n2)C(c2ccccc2OC(F)F)CC4F)cn1` (stereo not shown) [Example 16 (e2), 2-(5-(8-(2-(difluoromethoxy)phenyl)-6-fluoro-7,8-dihydro-6H-pyrrolo[2′,1′:2,3]imidazo[4,5-b]pyridin-2-yl)pyrimidin-2-yl)propan-2-ol], for which the IC50 was less than 1000 nM. Take `CC(C)(O)c1ncc(-c2ccc3nc4n(c3n2)C(c2ccccc2OC(F)F)CC4F)cn1` (stereo not shown) [Example 16 (e3), 2-(5-(8-(2-(difluoromethoxy)phenyl)-6-fluoro-7,8-dihydro-6H-pyrrolo[2′,1′:2,3]imidazo[4,5-b]pyridin-2-yl)pyrimidin-2-yl)propan-2-ol]: the IC50 lay within 10000 to 25000 nM. For `CC(C)(O)c1ncc(-c2ccc3nc4n(c3n2)C(c2ccccc2OC(F)F)CC4F)cn1` (stereo not shown) [Example 16 (e4), 2-(5-(8-(2-(difluoromethoxy)phenyl)-6-fluoro-7,8-dihydro-6H-pyrrolo[2′,1′:2,3]imidazo[4,5-b]pyridin-2-yl)pyrimidin-2-yl)propan-2-ol] the value was less than 1000 nM; for `FC(F)Oc1ccccc1C1CC(F)c2nc3ccc(-c4cnc(N5CCOCC5)nc4)nc3n21` (stereo not shown) [Example 17 (DM), 4-(5-(8-(2-(difluoromethoxy)phenyl)-6-fluoro-7,8-dihydro-6H-pyrrolo[2′,1′:2,3]imidazo[4,5-b]pyridin-2-yl)pyrimidin-2-yl)morpholine], less than 1000 nM; for `COc1ccc(-c2ccc3nc4n(c3n2)C(c2ccccc2OC(F)F)CC4F)cn1` (stereo not shown) [Example 18 (DM), 8-(2-(difluoromethoxy)phenyl)-6-fluoro-2-(6-methoxypyridin-3-yl)-7,8-dihydro-6H-pyrrolo[2′,1′:2,3]imidazo[4,5-b]pyridine], 1000 to 10000 nM. The molecule `Cn1cc(-c2ccc3nc4n(c3n2)C(c2ccccc2OC(F)F)CC4F)cn1` (stereo not shown) [Example 19 (e3), 8-(2-(difluoromethoxy)phenyl)-6-fluoro-2-(1-methyl-1H-pyrazol-4-yl)-7,8-dihydro-6H-pyrrolo[2′,1′:2,3]imidazo[4,5-b]pyridine] yielded an IC50 of 1000 to 10000 nM.

`Cc1ccc(C)c(C2CC(F)c3nc4ccc(-c5cnc(C(C)(C)O)nc5)nc4n32)c1` (stereo not shown) [Example 20 (DM), 2-(5-(8-(2,5-dimethylphenyl)-6-fluoro-7,8-dihydro-6H-pyrrolo[2′,1′:2,3]imidazo[4,5-b]pyridin-2-yl)pyrimidin-2-yl)propan-2-ol] yielded an IC50 of less than 1000 nM. Molecule `CC(C)(O)c1ccc(-c2ccc3nc4n(c3n2)C(c2ccccc2C2CC2)CC4F)cc1` (stereo not shown) [Example 21 (e3), 2-(4-(8-(2-cyclopropylphenyl)-6-fluoro-7,8-dihydro-6H-pyrrolo[2′,1′:2,3]imidazo[4,5-b]pyridin-2-yl)phenyl)propan-2-ol] showed an IC50 of 1000 to 10000 nM. `CC(C)(O)c1ccc(-c2ccc3nc4n(c3n2)C(c2ccccc2OC(F)(F)F)CC4F)cc1` (stereo not shown) [Example 22 (e3), 2-(4-(6-fluoro-8-(2-(trifluoromethoxy)phenyl)-7,8-dihydro-6H-pyrrolo[2′,1′:2,3]imidazo[4,5-b]pyridin-2-yl)phenyl)propan-2-ol] displayed a concentration for half-maximal inhibition (IC50) of 1000 to 10000 nM. The result for `CC(C)(O)c1ccc(-c2ccc3nc4n(c3n2)C(c2c(F)cccc2C(F)(F)F)CC4F)cc1` (stereo not shown) [Example 23 (e1), 2-(4-(6-fluoro-8-(2-fluoro-6-(trifluoromethyl)phenyl)-7,8-dihydro-6H-pyrrolo[2′,1′:2,3]imidazo[4,5-b]pyridin-2-yl)phenyl)propan-2-ol] reads less than 1000 nM; that for `CC(C)(O)c1ccc(-c2ccc3nc4n(c3n2)C(c2cc(F)ccc2C(F)(F)F)CC4F)cc1` (stereo not shown) [Example 24 (DM), 2-(4-(6-fluoro-8-(5-fluoro-2-(trifluoromethyl)phenyl)-7,8-dihydro-6H-yrrolo[2′,1′:2,3]imidazo[4,5-b]pyridin-2-yl)phenyl)propan-2-ol], less than 1000 nM. The result for `CC(C)(O)c1ccc(-c2ccc3nc4n(c3n2)C(c2cc(F)ccc2C(F)(F)F)CC4F)cc1` (stereo not shown) [Example 24 (e3), 2-(4-(6-fluoro-8-(5-fluoro-2-(trifluoromethyl)phenyl)-7,8-dihydro-6H-yrrolo[2′,1′:2,3]imidazo[4,5-b]pyridin-2-yl)phenyl)propan-2-ol] reads 1000 to 10000 nM; that for `CC(C)(O)c1ccc(-c2ccc3nc4n(c3n2)C(c2cc(F)ccc2C(F)(F)F)CC4F)cc1` (stereo not shown) [Example 24 (e4), 2-(4-(6-fluoro-8-(5-fluoro-2-(trifluoromethyl)phenyl)-7,8-dihydro-6H-yrrolo[2′,1′:2,3]imidazo[4,5-b]pyridin-2-yl)phenyl)propan-2-ol], less than 1000 nM; that for `COc1ccccc1C1CCc2nc3ccc(-c4ccc(C(C)(C)O)cc4)nc3n21` (stereo not shown) [Example 31 (e1), 2-(4-(8-(2-methoxyphenyl)-7,8-dihydro-6H-pyrrolo[2′,1′:2,3]imidazo[4,5-b]pyridin-2-yl)phenyl)propan-2-ol], less than 1000 nM. The result for `Cc1ccc(C)c([C@H]2CCc3nc4ccc(-c5cnc(C(C)(C)O)nc5)nc4n32)c1` [Example 36, (R)-2-(5-(8-(2,5-Dimethylphenyl)-7,8-dihydro-6H-pyrrolo[2′,1′:2,3]imidazo[4,5-b]pyridin-2-yl)pyrimidin-2-yl)propan-2-ol] reads less than 1000 nM; that for `Cc1ccc(C)c([C@H]2CCc3nc4ccc(-c5ccc(C(C)(C)O)cc5)nc4n32)c1` [Example 37, (R)-2-(4-(8-(2,5-dimethylphenyl)-7,8-dihydro-6H-pyrrolo[2′,1′:2,3]imidazo[4,5-b]pyridin-2-yl)phenyl)propan-2-ol], less than 1000 nM. In the case of `Cc1ccc(C)c([C@H]2CCc3nc4ccc(-c5ccc(N6CCN(C)CC6)cc5)nc4n32)c1` [Example 38, (R)-8-(2,5-dimethylphenyl)-2-(4-(4-methylpiperazin-1-yl)phenyl)-7,8-dihydro-6H-pyrrolo[2′,1′:2,3]imidazo[4,5-b]pyridine], the IC50 was 1000 to 10000 nM. For `COc1ccc(-c2ccc3nc4n(c3n2)[C@@H](c2cc(C)ccc2C)CC4)cn1` [Example 39, (R)-8-(2,5-dimethylphenyl)-2-(6-methoxypyridin-3-yl)-7,8-dihydro-6H-pyrrolo[2′,1′:2,3]imidazo[4,5-b]pyridine] the value was 1000 to 10000 nM; for `Cc1ccc(C)c([C@H]2CCc3nc4ccc(-c5cnn(C)c5)nc4n32)c1` [Example 40, (R)-8-(2,5-dimethylphenyl)-2-(1-methyl-1H-pyrazol-4-yl)-7,8-dihydro-6H-pyrrolo[2′,1′:2,3]imidazo[4,5-b]pyridine], 1000 to 10000 nM.
